Legend:
Amyloglucosidase = target: T1, Amyloglucosidase (Aspergillus niger, UniProt P69328); test: Glycosidase assay, p-nitrophenyl substrate; assay type: biochemical; conditions: Aspergillus niger enzyme; screened at 0.14 mg mL−1 (footnote: 0.4 mM)
T1 construct: purchased Sigma Aldrich Chemicals Limited
Description: (§1) Glycosidase assays were conducted as described by Watson et al. (Phytochemistry 1997, 46, 255) using p-nitrophenyl-substrates (except sialidase which used methylumbeliferyl-N-acetyineuraminic acid as substrate). Assays were carried out in microtitre plates. Enzymes were assayed in 0.1 M citric acid/0.2 M di-sodium hydrogen phosphate (McIlvaine) buffers at the optimum pH for the enzyme. All assays were carried out at 20° C. All enzymes and substrates were purchased from Sigma Aldrich Chemicals Limited. The incubation mixture consisted of 10 μl of enzyme solution, 10 μl of the iminosugars solution and 50 μl of the appropriate 5 mM p-nitrophenyl substrate made up in McIlvaine buffer at the optimum pH for the enzyme. The reactions were stopped with 0.4 M glycine (pH 10.4) during the exponential phase of the reaction. Absorbances were read at 405 nm. Water was substituted for the alkaloids in the blanks. Reactions were carried out in triplicate.
(§2) Enzyme inhibitor solutions—Compounds were dissolved in distilled water at a concentration of 1 mg mL^−1 and then screened at a concentration of 0.14 mg mL^−1 after dilution of the 1 mg mL^−1 in the assay volumes of substrates.

[1] = system: N-acetyl-β-D-glucosaminidase; test: Glycosidase assay, p-nitrophenyl substrate; assay type: biochemical; conditions: screened at 0.14 mg mL−1 (footnote: 0.4 mM)
Description: as §1, §2

[2] = target: T2, N-acetyl-β-D-hexosaminidase (Aspergillus oryzae, UniProt Q8J2T0); test: Glycosidase assay, p-nitrophenyl substrate; assay type: biochemical; conditions: Aspergillus oryzae enzyme; screened at 0.14 mg mL−1 (footnote: 0.4 mM)
T2 construct: purchased Sigma Aldrich Chemicals Limited
Description: as §1, §2

Naringinase = test: Glycosidase assay, p-nitrophenyl substrate; assay type: biochemical; conditions: Penicillium decumbens enzyme; screened at 0.14 mg mL−1 (footnote: 0.4 mM)
Description: as §1, §2

α-D-galactosidase = target: T3, α-D-galactosidase (Coffea arabica, UniProt Q42656); test: Glycosidase assay, p-nitrophenyl substrate; assay type: biochemical; conditions: Green coffee bean enzyme; screened at 0.14 mg mL−1 (footnote: 0.4 mM)
T3 construct: purchased Sigma Aldrich Chemicals Limited
Description: as §1, §2

α-D-glucosidase [3] = target: T4, α-D-glucosidase (Oryza sativa subsp. japonica, UniProt Q653V7); test: Glycosidase assay, p-nitrophenyl substrate; assay type: biochemical; conditions: Rice enzyme; screened at 0.14 mg mL−1 (footnote: 0.4 mM)
T4 construct: purchased Sigma Aldrich Chemicals Limited
Description: as §1, §2

α-D-glucosidase [4] = target: T5, α-D-glucosidase (Saccharomyces cerevisiae, UniProt P53341); test: Glycosidase assay, p-nitrophenyl substrate; assay type: biochemical; conditions: Saccharomyces cerevisiae enzyme; screened at 0.14 mg mL−1 (footnote: 0.4 mM); 20° C
T5 construct: purchased Sigma Aldrich Chemicals Limited
Description: as §1, §2

α-D-glucosidase [5] = test: Glycosidase assay, p-nitrophenyl substrate; assay type: biochemical; conditions: Bacillus sterothermphilus enzyme; screened at 0.14 mg mL−1 (footnote: 0.4 mM)
Description: as §1, §2

α-D-mannosidase = target: T6, α-D-mannosidase (Canavalia ensiformis, UniProt C0HJB3); test: Glycosidase assay, p-nitrophenyl substrate; assay type: biochemical; conditions: Jack bean enzyme; screened at 0.14 mg mL−1 (footnote: 0.4 mM)
T6 construct: purchased Sigma Aldrich Chemicals Limited
T6 sequence (C0HJB3 1-981): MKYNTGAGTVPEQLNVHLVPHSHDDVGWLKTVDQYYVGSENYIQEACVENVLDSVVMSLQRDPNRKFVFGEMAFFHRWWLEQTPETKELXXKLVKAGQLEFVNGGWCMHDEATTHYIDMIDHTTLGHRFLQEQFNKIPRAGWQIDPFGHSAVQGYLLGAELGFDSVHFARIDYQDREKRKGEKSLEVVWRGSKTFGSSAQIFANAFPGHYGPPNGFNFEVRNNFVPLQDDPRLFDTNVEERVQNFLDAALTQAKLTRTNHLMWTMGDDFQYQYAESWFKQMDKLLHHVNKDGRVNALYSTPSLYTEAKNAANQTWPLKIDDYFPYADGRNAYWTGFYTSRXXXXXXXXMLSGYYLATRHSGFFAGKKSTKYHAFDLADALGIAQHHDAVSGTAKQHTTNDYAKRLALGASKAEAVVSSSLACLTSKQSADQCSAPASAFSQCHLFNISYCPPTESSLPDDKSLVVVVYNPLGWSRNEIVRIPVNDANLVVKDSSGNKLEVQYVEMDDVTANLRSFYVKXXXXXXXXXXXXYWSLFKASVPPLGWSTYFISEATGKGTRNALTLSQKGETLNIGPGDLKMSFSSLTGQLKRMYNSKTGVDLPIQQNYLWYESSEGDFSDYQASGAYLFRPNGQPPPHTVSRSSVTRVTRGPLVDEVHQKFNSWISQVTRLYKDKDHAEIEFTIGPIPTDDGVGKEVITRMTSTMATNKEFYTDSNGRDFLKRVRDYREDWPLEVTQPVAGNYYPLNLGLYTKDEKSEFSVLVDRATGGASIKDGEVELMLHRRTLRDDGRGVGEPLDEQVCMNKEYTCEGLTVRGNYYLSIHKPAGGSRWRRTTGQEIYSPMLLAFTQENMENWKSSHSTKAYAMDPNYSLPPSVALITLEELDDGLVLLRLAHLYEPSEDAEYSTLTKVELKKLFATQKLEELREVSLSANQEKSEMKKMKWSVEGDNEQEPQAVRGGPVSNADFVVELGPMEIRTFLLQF
Description: as §1, §2

α-L-fucosidase = target: T7, α-L-fucosidase (Bos taurus, UniProt Q2KIM0); test: Glycosidase assay, p-nitrophenyl substrate; assay type: biochemical; conditions: Bovine kidney enzyme; screened at 0.14 mg mL−1 (footnote: 0.4 mM)
T7 construct: purchased Sigma Aldrich Chemicals Limited
T7 sequence (Q2KIM0 23-468): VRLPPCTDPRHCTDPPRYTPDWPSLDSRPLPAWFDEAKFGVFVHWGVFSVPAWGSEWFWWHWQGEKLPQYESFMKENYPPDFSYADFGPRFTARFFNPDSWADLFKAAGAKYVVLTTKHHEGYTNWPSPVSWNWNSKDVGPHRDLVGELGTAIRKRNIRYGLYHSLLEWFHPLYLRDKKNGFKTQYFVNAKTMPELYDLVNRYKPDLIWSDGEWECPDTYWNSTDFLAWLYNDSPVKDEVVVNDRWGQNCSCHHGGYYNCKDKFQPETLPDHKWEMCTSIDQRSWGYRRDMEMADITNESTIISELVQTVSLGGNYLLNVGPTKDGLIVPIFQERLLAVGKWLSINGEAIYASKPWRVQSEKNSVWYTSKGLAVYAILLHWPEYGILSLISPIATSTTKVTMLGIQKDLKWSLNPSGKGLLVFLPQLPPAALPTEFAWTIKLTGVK
Description: as §1, §2

β-D-galactosidase = test: Glycosidase assay, p-nitrophenyl substrate; assay type: biochemical; conditions: Bovine liver enzyme; screened at 0.14 mg mL−1 (footnote: 0.4 mM)
Description: as §1, §2

β-D-glucosidase = test: Glycosidase assay, p-nitrophenyl substrate; assay type: biochemical; conditions: Almond enzyme; screened at 0.14 mg mL−1 (footnote: 0.4 mM)
Description: as §1, §2

β-D-mannosidase = test: Glycosidase assay, p-nitrophenyl substrate; assay type: biochemical; conditions: Cellullomonas fimi enzyme; screened at 0.14 mg mL−1 (footnote: 0.4 mM)
Description: as §1, §2

[6] = system: sialidase (NanH from T. forsythia); test: Sialidase assay with MUNANA substrate; assay type: biochemical, Tannerella forsythia; conditions: 1 mM inhibitor, 2.5 nM sialidase, 0.1 mM MUNANA, pH 7.2
Description: (§3) Sialidase assays used 1 mM inhibitor (or water without inhibitor) and 2.5 nM sialidase (including NanH from T. forsythia) incubated in the presence of 0.1 mM methylumbeliferyl-N-acetylneuraminic acid, pH 7.2 in 20 mM sodium phosphate buffer. Reactions were stopped at 30 seconds and 60 seconds via addition of ph 10.5 60 mM sodium carbonate buffer. Release of fluorogenic MU was quantified by measuring fluorescence emission at 450 nm, excitation 350 nm. Percentage sialidase activity was expressed as the change in fluorescence between 30 seconds and 60 seconds compared to that of a reaction without inhibitor. Reactions were carried out in triplicate.
MU release can be used to quantify sialidase activity.
as §3, with “1” for “Sialidase assays used 1”, “forsythia) was” for “forsythia)”, “MUNANA,” for “methylumbeliferyl-N-acetylneuraminic acid,”, “7.2” for “7.2 in”, “Sodium Phosphate” for “sodium phosphate”

glucosidases = test: Glycosidase panel, glucosidases overall; assay type: biochemical; conditions: panel of glucosidases
Description: Glycosidase assays were conducted on Compounds 1 and 3 and an extract of Zizyphus used in the disaccharide loading mouse studies to determine if glucosidase inhibition might explain the effects on blood glucose. A panel of glycosidases were used to be sure any activity found was a selective inhibition and not just non-specific binding to the enzyme.
as §1, with “triplicate. […]” for “triplicate.”

male ddy mouse [7] = test: Maltose loading test, blood glucose in mice; assay type: in vivo; conditions: oral maltose 2.5 g/kg, test sample 500 mg/kg body weight, mean n = 5
Description: (§4) The animal experimental protocols in this study were approved by the Animal Experiments Committee of the University of Toyama (S-2010 UH-2). Male ddy mice (29-33 g) after an overnight fast were used for acute disaccharide loading tests. Maltose (2.5 g/kg body weight) or Sucrose (2.5 g/kg body weight) as well as the test samples were dissolved in 0.9% NaCl solution and administered to mice via a stomach tube. A control group was loaded with saline only.
(§5) Blood samples for glucose measurements were obtained from the tail vein at 0, 15, 30, 60, and 120 min after disaccharide-loading. The blood glucose levels were measured by a portable kit, Antsence II™ (Sankyo Co. Ltd. Tokyo, Japan). The Zizyphus extract HS0810/142/41 as well as the purified compounds were tested in this way.

male ddy mouse [8] = test: Sucrose loading test, blood glucose in mice; assay type: in vivo; conditions: oral sucrose 2.5 g/kg, test sample 500 mg/kg body weight, mean n = 5
Description: as §4, §5

T5 sequence (P53341 whole entry): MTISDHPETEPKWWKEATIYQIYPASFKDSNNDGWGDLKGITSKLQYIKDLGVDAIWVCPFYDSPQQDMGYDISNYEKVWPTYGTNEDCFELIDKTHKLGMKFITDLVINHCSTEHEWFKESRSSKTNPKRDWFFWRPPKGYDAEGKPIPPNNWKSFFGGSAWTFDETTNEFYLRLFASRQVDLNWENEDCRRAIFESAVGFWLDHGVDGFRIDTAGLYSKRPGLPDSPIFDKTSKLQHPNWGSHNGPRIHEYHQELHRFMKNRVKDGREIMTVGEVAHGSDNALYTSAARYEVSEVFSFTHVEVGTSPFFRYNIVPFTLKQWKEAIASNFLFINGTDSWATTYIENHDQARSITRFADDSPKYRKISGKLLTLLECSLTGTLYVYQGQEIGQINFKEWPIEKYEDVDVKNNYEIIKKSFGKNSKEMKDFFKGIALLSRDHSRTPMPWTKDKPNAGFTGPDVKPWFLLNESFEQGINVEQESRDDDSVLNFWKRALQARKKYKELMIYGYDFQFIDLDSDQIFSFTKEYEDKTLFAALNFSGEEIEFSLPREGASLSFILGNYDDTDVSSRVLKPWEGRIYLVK
T2 sequence (Q8J2T0 97-600): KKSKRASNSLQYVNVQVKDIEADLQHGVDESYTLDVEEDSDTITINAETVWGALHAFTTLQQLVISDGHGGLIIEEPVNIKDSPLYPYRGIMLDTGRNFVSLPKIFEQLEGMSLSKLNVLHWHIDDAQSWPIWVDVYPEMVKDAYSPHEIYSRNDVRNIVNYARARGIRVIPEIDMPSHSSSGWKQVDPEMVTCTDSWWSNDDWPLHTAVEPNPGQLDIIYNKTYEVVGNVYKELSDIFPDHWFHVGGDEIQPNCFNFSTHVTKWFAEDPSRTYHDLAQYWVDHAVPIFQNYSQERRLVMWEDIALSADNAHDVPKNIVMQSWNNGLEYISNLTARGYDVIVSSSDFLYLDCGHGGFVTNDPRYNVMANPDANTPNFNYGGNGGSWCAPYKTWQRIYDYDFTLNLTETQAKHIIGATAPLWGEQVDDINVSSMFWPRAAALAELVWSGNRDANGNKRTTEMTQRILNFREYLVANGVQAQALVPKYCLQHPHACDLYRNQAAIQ
T4 sequence (Q653V7 34-885): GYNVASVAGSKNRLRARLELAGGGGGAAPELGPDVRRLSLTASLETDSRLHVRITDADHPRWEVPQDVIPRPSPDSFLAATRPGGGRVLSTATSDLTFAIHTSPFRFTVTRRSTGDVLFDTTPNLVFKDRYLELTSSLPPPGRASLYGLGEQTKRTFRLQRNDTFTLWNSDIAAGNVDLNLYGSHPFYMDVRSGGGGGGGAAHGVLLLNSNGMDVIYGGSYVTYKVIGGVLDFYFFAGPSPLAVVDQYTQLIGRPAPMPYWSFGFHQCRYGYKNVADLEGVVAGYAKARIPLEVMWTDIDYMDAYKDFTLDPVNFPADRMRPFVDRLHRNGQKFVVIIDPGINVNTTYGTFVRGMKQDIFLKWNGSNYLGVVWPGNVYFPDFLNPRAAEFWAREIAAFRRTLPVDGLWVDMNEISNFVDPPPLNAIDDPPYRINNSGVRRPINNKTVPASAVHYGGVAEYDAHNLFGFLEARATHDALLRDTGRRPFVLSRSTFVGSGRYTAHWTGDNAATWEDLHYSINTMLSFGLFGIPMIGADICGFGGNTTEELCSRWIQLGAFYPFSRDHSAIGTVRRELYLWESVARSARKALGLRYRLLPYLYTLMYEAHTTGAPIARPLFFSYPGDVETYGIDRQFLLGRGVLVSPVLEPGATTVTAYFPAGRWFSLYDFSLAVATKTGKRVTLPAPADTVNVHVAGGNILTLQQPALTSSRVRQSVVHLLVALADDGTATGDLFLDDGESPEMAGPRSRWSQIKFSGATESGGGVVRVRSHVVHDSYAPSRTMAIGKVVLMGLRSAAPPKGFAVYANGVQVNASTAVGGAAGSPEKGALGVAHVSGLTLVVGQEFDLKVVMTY
T3 sequence (Q42656 16-378): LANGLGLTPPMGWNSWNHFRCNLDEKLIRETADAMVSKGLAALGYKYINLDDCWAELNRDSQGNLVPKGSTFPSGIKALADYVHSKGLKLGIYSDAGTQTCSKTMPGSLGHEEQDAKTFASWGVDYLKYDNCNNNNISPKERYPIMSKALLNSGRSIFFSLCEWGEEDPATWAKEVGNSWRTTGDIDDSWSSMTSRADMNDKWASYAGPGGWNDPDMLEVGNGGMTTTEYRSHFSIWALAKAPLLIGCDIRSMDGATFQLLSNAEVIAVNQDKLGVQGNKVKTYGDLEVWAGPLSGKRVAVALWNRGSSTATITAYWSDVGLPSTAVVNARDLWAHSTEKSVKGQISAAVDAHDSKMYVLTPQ
T1 sequence (P69328 25-640): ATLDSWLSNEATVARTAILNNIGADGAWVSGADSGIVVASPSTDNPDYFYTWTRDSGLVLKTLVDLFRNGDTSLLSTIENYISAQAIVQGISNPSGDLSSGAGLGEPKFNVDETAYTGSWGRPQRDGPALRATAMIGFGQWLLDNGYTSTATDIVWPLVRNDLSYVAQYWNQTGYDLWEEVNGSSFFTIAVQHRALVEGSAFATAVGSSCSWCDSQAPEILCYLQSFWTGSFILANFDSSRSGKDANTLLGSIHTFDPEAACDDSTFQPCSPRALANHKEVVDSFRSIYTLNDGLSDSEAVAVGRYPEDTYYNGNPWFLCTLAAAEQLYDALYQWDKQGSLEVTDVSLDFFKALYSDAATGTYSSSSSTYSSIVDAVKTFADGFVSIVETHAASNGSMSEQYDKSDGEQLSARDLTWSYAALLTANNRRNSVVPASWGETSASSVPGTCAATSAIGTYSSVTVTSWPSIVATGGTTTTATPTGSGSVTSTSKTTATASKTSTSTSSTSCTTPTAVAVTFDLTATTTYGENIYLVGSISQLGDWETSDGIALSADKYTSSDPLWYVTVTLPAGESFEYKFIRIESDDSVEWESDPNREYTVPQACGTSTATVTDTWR

SMILES	% inhibition [2]	% inhibition (α-D-galactosidase)	% inhibition (α-D-glucosidase [3])	% inhibition (α-D-glucosidase [4])	% inhibition (α-D-mannosidase)	% inhibition (α-L-fucosidase)	blood glucose (male ddy mouse [7]; 0 min after administration)	blood glucose (male ddy mouse [7]; 15 min after administration)	blood glucose (male ddy mouse [7]; 30 min after administration)	blood glucose (male ddy mouse [7]; 60 min after administration)	blood glucose (male ddy mouse [7]; 120 min after administration)	other results
OC[C@H]1NC[C@H](O)[C@@H](O)[C@@H]1O [DNJ, 1-deoxynojirimycin]	−5.50%	−3.34%	99.56%	35.67%	26.65%	5.86%	–	–	–	–	–	% inhibition (Amyloglucosidase): 31.71%; % inhibition ([1]; Bovine kidney enzyme): −0.83%; % inhibition ([1]; Jack bean enzyme): 2.76%; % inhibition (Naringinase): 20.81%; % inhibition (α-D-glucosidase [5]): 99.48%; % inhibition (β-D-galactosidase): 0.45%; % inhibition (β-D-glucosidase): 63.7%; % inhibition (β-D-mannosidase): −19.03%; % inhibition [6]: 2%; glucosidase inhibition (in words) (glucosidases): expected strong inhibition of various glucosidases
CN1C[C@@H](CO)C[C@H]1C(=O)O [Compound 1, N-methyl-4S-(hydroxymethyl)-2S-pyrrolidinecarboxylic acid]	−6%	<5%	5%	<5%	18%	15%	83 mg/dL	231 mg/dL	187 mg/dL	140 mg/dL	74 mg/dL	–
CN1C[C@](O)(CO)C[C@H]1C(=O)O [Compound 3, N-methyl-4-hydroxy-4S-(hydroxymethyl)-2S-pyrrolidinecarboxylic acid]	−6%	<5%	11%	<5%	6%	–	83 mg/dL	233 mg/dL	185 mg/dL	130 mg/dL	80 mg/dL	blood glucose (male ddy mouse [8]; 0 min after administration): 109 mg/dL; blood glucose (male ddy mouse [8]; 15 min after administration): 183 mg/dL; blood glucose (male ddy mouse [8]; 30 min after administration): 143 mg/dL; blood glucose (male ddy mouse [8]; 60 min after administration): 106 mg/dL; blood glucose (male ddy mouse [8]; 120 min after administration): 80 mg/dL
